In PubChem BioAssay (NCI) one finds GI50 and TGI data, which are given here for seven molecules.

Molecules are shown by their SMILES.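 How tested: cells in 96-well plates exposed to compound for 48 hours at five concentrations. Here, GI50 denotes the concentration required for 50% inhibition of growth. TGI is the concentration that stops growth completely.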

Some test systems named below: OVCAR-4 ovarian; RPMI-8226 leukemia; CCRF-CEM leukemia; ACHN renal; MCF7 breast; SF-295 CNS; SF-268 CNS; PC-3 prostate; HCT-15 colon; UACC-62 melanoma.
What all share (experiment): NCI-60 cell line screen, 48 h

As for `COC(=O)c1cc(-c2ccc(OC)c(OC)c2)[nH]c1N/N=C/c1c(Cl)cccc1Cl`, the GI50 in the experiment with OVCAR-4 ovarian is 1670 nM; with RPMI-8226 leukemia it was 531 nM; in the experiment on CCRF-CEM leukemia, 406 nM; in the experiment with ACHN renal, 1180 nM; in the experiment with MCF7 breast, 301 nM; with SF-295 CNS, 257 nM. For the same molecule, the GI50 was 705 nM with SF-268 CNS, 538 nM in the experiment on PC-3 prostate, 946 nM in the experiment on HCT-15 colon and 552 nM with UACC-62 melanoma. The TGI in the experiment with OVCAR-4 ovarian was 12100 nM; in the experiment on RPMI-8226 leukemia, more than 100000 nM; in the experiment on CCRF-CEM leukemia, more than 100000 nM; with ACHN renal it was 13200 nM; in the experiment with MCF7 breast it was 1440 nM; with SF-295 CNS, 2070 nM. Further, the TGI came to 6270 nM in the experiment on SF-268 CNS, 24000 nM in the experiment with HCT-15 colon and 11200 nM in the experiment with UACC-62 melanoma.

In the case of `COc1cc(/C=C/c2ccc3c(Br)cc(Br)c(O)c3n2)ccc1O`, the GI50 in the experiment with OVCAR-4 ovarian is 2180 nM; in the experiment on RPMI-8226 leukemia, 1210 nM; in the experiment with CCRF-CEM leukemia it was 359 nM; in the experiment on ACHN renal it was 891 nM; with MCF7 breast, 1530 nM; with SF-295 CNS, 912 nM. Moreover, the GI50 with SF-268 CNS was 1310 nM; with PC-3 prostate, 1260 nM; in the experiment on HCT-15 colon it was 424 nM; in the experiment on UACC-62 melanoma it was 1670 nM. The TGI in the experiment on OVCAR-4 ovarian came out at 11600 nM; with RPMI-8226 leukemia, 8070 nM; with CCRF-CEM leukemia it was 3030 nM; in the experiment on ACHN renal it was 12100 nM; with MCF7 breast, 12500 nM; in the experiment with SF-295 CNS, 14400 nM. Besides, the TGI stood at 14800 nM in the experiment with SF-268 CNS, 15100 nM in the experiment with PC-3 prostate, 15300 nM in the experiment on HCT-15 colon and 5300 nM with UACC-62 melanoma.

On to `CCc1c(C)nc2sc3c(N)ncnc3c2c1C`, for which the GI50 in the experiment on OVCAR-4 ovarian, in the experiment with RPMI-8226 leukemia, with CCRF-CEM leukemia, with ACHN renal, in the experiment on MCF7 breast and in the experiment on SF-295 CNS was more than 25000 nM in each case. Also, the GI50 with SF-268 CNS, in the experiment with PC-3 prostate, in the experiment with HCT-15 colon and with UACC-62 melanoma was more than 25000 nM in each case. Besides, the TGI with OVCAR-4 ovarian, in the experiment with RPMI-8226 leukemia, in the experiment on CCRF-CEM leukemia, in the experiment with ACHN renal, in the experiment on MCF7 breast and with SF-295 CNS was more than 25000 nM throughout. The TGI in the experiment on SF-268 CNS, in the experiment with PC-3 prostate, in the experiment with HCT-15 colon and with UACC-62 melanoma was more than 25000 nM each time.

In the case of `COc1cc(C(=O)c2cc(C)c3[nH]c4ccc(O)cc4c3c2C)cc(OC)c1OC`, the GI50 in the experiment on OVCAR-4 ovarian is 1050 nM; in the experiment on RPMI-8226 leukemia it was 22.8 nM; in the experiment with CCRF-CEM leukemia it was 25.4 nM; in the experiment on ACHN renal it was less than 12.8 nM; with MCF7 breast, less than 10 nM; in the experiment on SF-295 CNS, less than 10 nM. The GI50 with SF-268 CNS is 74.1 nM; with PC-3 prostate, less than 20 nM; in the experiment on HCT-15 colon, 19.6 nM; in the experiment on UACC-62 melanoma, less than 10 nM. In addition, the TGI was more than 100000 nM in the experiment on OVCAR-4 ovarian; more than 100000 nM in the experiment with RPMI-8226 leukemia; more than 100000 nM in the experiment on CCRF-CEM leukemia; more than 100000 nM in the experiment on ACHN renal; more than 44400 nM in the experiment with MCF7 breast; 326 nM with SF-295 CNS. The TGI in the experiment on SF-268 CNS, in the experiment on PC-3 prostate, in the experiment with HCT-15 colon and in the experiment with UACC-62 melanoma was more than 100000 nM in each case.

In the case of `c1cc(N2CCN(c3ccc(C4=NCCCN4)cc3)CC2)ccc1C1=NCCCN1`, the GI50 with OVCAR-4 ovarian was 71800 nM; in the experiment with RPMI-8226 leukemia, 23800 nM; with CCRF-CEM leukemia, more than 61400 nM; with ACHN renal it was more than 69900 nM; in the experiment on MCF7 breast, more than 57500 nM; with SF-295 CNS it was more than 25100 nM. Further, the GI50 was more than 75800 nM in the experiment with SF-268 CNS, more than 52700 nM in the experiment on PC-3 prostate and more than 100000 nM with HCT-15 colon. Further, the TGI with OVCAR-4 ovarian, in the experiment on RPMI-8226 leukemia, with CCRF-CEM leukemia, with ACHN renal, with MCF7 breast and in the experiment with SF-295 CNS was more than 100000 nM in each case. Further, the TGI with SF-268 CNS is more than 100000 nM; with PC-3 prostate, more than 100000 nM; in the experiment on HCT-15 colon, more than 100000 nM; in the experiment with UACC-62 melanoma, more than 35300 nM.

Turning to `Oc1c(-c2cc(C(F)(F)F)[nH]n2)cc(Cl)c(OCc2ccc(Cl)cc2)c1-c1ccc(Cl)c(C(F)(F)F)c1`, the GI50 is 1310 nM with OVCAR-4 ovarian; 204 nM with RPMI-8226 leukemia; 192 nM with CCRF-CEM leukemia; 593 nM in the experiment with ACHN renal; 228 nM in the experiment on MCF7 breast; 607 nM with SF-295 CNS. The GI50 is 180 nM in the experiment with SF-268 CNS, 171 nM in the experiment with PC-3 prostate, 153 nM with HCT-15 colon and 355 nM in the experiment on UACC-62 melanoma. Besides, the TGI with OVCAR-4 ovarian amounted to 7410 nM; in the experiment on RPMI-8226 leukemia, 1190 nM; in the experiment with CCRF-CEM leukemia it was 4770 nM; in the experiment on ACHN renal, 4860 nM; with MCF7 breast it was 5390 nM; with SF-295 CNS, 1960 nM. For the same molecule, the TGI in the experiment on SF-268 CNS is 4140 nM; in the experiment with PC-3 prostate, 5090 nM; in the experiment with HCT-15 colon it was 693 nM; with UACC-62 melanoma, 1420 nM.

For the molecule `C[C@@H]1Cc2cc(O)ccc2[C@H]2CC[C@]3(C)/C(=C/COCCN(C)C)CC[C@H]3[C@H]12` (tested in a mixture with another compound), the GI50 in the experiment with OVCAR-4 ovarian was 271 nM; in the experiment on RPMI-8226 leukemia, 239 nM; with CCRF-CEM leukemia it was 159 nM; with ACHN renal, 42.9 nM; in the experiment on MCF7 breast, less than 20.8 nM; with SF-295 CNS it was 175 nM. For the same molecule, the GI50 was 111 nM with SF-268 CNS, 233 nM in the experiment on PC-3 prostate, 205 nM in the experiment with HCT-15 colon and 250 nM with UACC-62 melanoma. Besides, the TGI in the experiment with OVCAR-4 ovarian was 771 nM; with RPMI-8226 leukemia, 694 nM; in the experiment with CCRF-CEM leukemia it was 416 nM; in the experiment with ACHN renal, 201 nM; in the experiment with MCF7 breast, 612 nM; in the experiment with SF-295 CNS, 474 nM. Moreover, the TGI with SF-268 CNS is 235 nM; with PC-3 prostate, 1300 nM; in the experiment with HCT-15 colon, 550 nM; with UACC-62 melanoma, 625 nM.
